Laboratory results published in US7271158B2, “Treatment of rumen acidosis with α-amylase inhibitors” (Pfizer Inc., priority 2000, dated 2007).

Key:
[1] = target: rumen fluid supernatant amylases; test: Rumen bacterial amylase assay, protocol 1 (Sigma amylase kit 577); type: biochemical, rumen bacteria, Hereford×Friesian calves; settings: rumen fluid amylase screen using Sigma kit 577
Description: Rumen Bacterial Amylase Assay—Protocol 1
The enzymatic reactions involved in the assay are as follows:
5 ET-G7PNP→(α-amylase)→2 ET-G5+2 G2PNP+2 ET-G4+2 G3PNP+ET-G3+G4-PNP2 G2PNP+2 G3 PNP→(α-glucosidase)→4 PNP +10 glucose
α-Amylase hydrolyses 4,6-ethylidene-G7-PNP (ET-G7 PNP) to G2, G3 and G4 PNP fragments. α-Glucosidase (α-1,4-glucan glucohydrolase EC 3.2.1.3) hydrolyses G2PNP and G3PNP to yield p-nitrophenol and glucose. Five moles of substrate (ET-G7PNP) is hydrolysed to yield 4 moles of p-nitrophenol p-Nitrophenol absorbs light as 405 nm, and following a two minute lag period the rate of increase in absorbance at 405 nm is directly proportional to α-amylase activity in the well.
Rumen fluid was collected from 4-month-old Hereford×Friesian calves (125–135 kg, supplied by Cwmnant Calves Ltd. Cwmnant. Tregaron. Ceredigion) fed on diet GH 313. The rumen fluid was collected from slaughtered calves into pre-warmed vacuum flasks, as soon as possible after euthanasia. It was then filtered through a double layer of absorbent gauze (Absorbent gauze BP, GAUZ 4 from Robert Bailey plc, Stockport) to remove hay and feed particles. The liquid was centrifuged at a relative centrifugal force of 23,300 for 60 minutes, and the supernatant decanted, avoiding contamination from the loose top layer of the pellet by careful pouring. The supernatant was then aliquoted into 50 ml plastic tubes and frozen at […]. When required for use in an assay the rumen fluid supernatant was thawed by standing the tubes in cold water. Test compounds or controls were dispensed into the 96-well assay plate at 4 μl/well. 100 μl per well of Sigma amylase reagent 577 (made up to half the volume described in the instructions (i.e. 10 ml for a 577-20 vial)) was then added to each well, followed by 100 μl per well of rumen fluid supernatant. A T=0 reading at 405 nm was taken at this stage using an Anthos plate reader. The plate was then incubated at room temperature or 37° C. until an optical density window of approximately 1.000U was seen (typically one hour at 37° C. or three hours at room temperature). A second reading was taken at 405 nm, and the first reading subtracted from it. Active compounds cause a reduction in the optical density readings when compared to the control without the agent being tested.

[2] = test system: rumen fluid fermentation (RUSITEC chronic acidosis model); test: RUSITEC rumen simulation, chronic acidosis model: acarbose; type: cell-based, Guernsey cow; settings: for increase in butyrate production: between control and treatment periods (0 mg/vessel/d: 24%); for change in VFA production: treatment period vs preceding control period (0 mg/vessel/d: −3%)
Description: Evaluation of Agents Using the Rumen Simulation Technique ([…]) to Model Chronic Acidosis. The in vitro rumen simulation technique ([…]), first described by Czerkawski and Breckenridge (1977) was used to evaluate the effect of the bacterial α-amylase and/or α-glucosidase inhibitor acarbose on daily pH profiles and VFA production using a commercial cattle concentrate ration (GH313-see later). […] Equipment: The apparatus consisted of two […] units each containing four-fermentation vessels. […] The feed was placed in a nylon bag (14×9 cm, 50 μm), and was gently agitated using a piston mechanism (8 strokes/min). Buffer (McDougall, 1948) was continuously infused at a rate of approximately 750 ml/day by an eight channel peristaltic pump (Watson Marlow). The effluent was collected in 1 liter glass bottles containing 20 ml of oxalic acid solution (12 g/100 ml in deionised water). This was added to inhibit further microbial activity Feed: Each vessel was fed daily with a bag containing 30 g of the commercial pelleted ration GH313 (89% dry matter) and 2.5 g barley straw (90% dry matter) chopped into 1-2 cm lengths. 7 g of corn starch (Sigma Cal. No. S4126) was added to the liquid phase of all fermenter vessels at feeding on the last four days of the experiment to simulate acute acidosis. Rumen fluid donor: Rumen fluid was collected from a five year old dry Guernsey cow. […] Rumen contents were collected via a rumen fistula (Bar Diamond Inc. P.O. Box. 60. Bar Diamond Lane. Parma. Id. 83660-0060. U.S.A) Vessel inoculation: Rumen contents were taken from the fistulated donor animal at 08:00 h (before the morning feed). The material was carried to the laboratory in pre-warmed insulated flasks, and then strained through four layers of cotton gauze into another pre-warmed insulated flask. 70 g of the solid residue were weighed into each of eight nylon bags. One bag containing rumen solids, and one bag containing fresh feed was placed in the feed chamber for each vessel. The liquid contents of each vessel were 100 ml deionised water, 200 ml of buffer artificial and 500 ml of rumen fluid. After assembling and sealing the vessels, they were placed in the water baths and the piston rod attached to the drive bar. The effluent tubes were placed in the collection flasks. The head space in each vessel was flushed with CO2 for 2 min., then the piston drive motor and buffer infusion pump were started. Daily maintenance and sampling procedure: These procedures were carried out at the same time each day. Eight feed bags were prepared, and a 1 l dispenser bottle containing infusion buffer warmed to 39° C. Treatment with acarbose: Acarbose was obtained as GlucobayTM tablets (Bayer, AAH Pharmaceuticals) Each tablet contains 100 mg acarbose. Duplicate vessels were treated with 0, 1, 10 and 100 mg/d of acarbose by adding 1 tablet to each of two feed bags to give 100 mg/vessel/d. The lower doses were prepared by dissolving/suspending a tablet in 10 ml buffer (giving a 10 mg/ml solution of acarbose). One ml of this solution was then added to 9 ml of buffer, giving a 1 mg/ml solution. One ml of each solution was then added to the contents of two feed bags, to give 10 and 1 mg/vessel/d. Finally, the acarbose was dried on to the feed by leaving the bags at room temperature overnight. Analyses: Dry matter losses from the nylon bags after 48 hours incubation were measured by drying the washed bag contents in an oven for 23 h at 65° C. Effluent samples (10 ml) were taken daily and stored at -20° C. for subsequent VFA and lactate analysis .pH was automatically recorded at 17 min. intervals using equipment supplied by Philip Harris Education. A combination electrode was fitted in each vessel via a gas-tight port in the lid. […] The recorded pH values were downloaded to a PC running […] 32 software (Philip Harris Education) and then transferred to a spreadsheet for further analysis. […]

Structure (SMILES): CC1OC(OC2C(CO)OC(OC3C(CO)OC(O)C(O)C3O)C(O)C2O)C(O)C(O)C1NC1C=C(CO)C(O)C(O)C1O (stereo not shown) [Acarbose, acarbose]
- IC50 [1]: 2030 nM
- increase in butyrate production ([2]; 1 mg/vessel/d): 27%
- change in VFA production ([2]; 1 mg/vessel/d): +3%
- increase in butyrate production ([2]; 10 mg/vessel/d): 76%
- change in VFA production ([2]; 10 mg/vessel/d): −10%
- increase in butyrate production ([2]; 100 mg/vessel/d): 134%
- change in VFA production ([2]; 100 mg/vessel/d): −16%
